5 compounds from BindingDB's records for doi:10.1021/jm00037a025 (University of Oxford, 1994) can be followed below.

SMILES strings stand for the structures.

The target of this assay is D(2) dopamine receptor (Rattus norvegicus, UniProt P61169). Description: Displacement of spiperone from dopamine receptor D2 of rat brain membrane.
Sequence of D(2) dopamine receptor (P61169 whole entry): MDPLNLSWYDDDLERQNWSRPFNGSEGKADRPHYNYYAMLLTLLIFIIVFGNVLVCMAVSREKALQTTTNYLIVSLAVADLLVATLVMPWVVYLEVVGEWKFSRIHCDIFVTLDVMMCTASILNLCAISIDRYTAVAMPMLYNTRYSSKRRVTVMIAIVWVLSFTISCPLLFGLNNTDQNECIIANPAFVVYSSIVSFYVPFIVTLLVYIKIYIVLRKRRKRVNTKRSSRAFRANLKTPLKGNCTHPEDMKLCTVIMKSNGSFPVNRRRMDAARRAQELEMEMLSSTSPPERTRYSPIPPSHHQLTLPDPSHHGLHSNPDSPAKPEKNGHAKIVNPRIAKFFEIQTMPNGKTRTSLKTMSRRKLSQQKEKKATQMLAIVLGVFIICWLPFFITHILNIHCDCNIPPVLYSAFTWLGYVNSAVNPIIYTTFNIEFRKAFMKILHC
One may read the IC50 as the concentration at which inhibition is half-maximal. Read a low IC50 as inhibition by little substance. In the case of `CCCCN1CCC[C@H](c2cccc(O)c2)C1`, the IC50 stood at 430 nM. For `CN1CCC[C@H](c2cccc(O)c2)C1` the value was 610 nM; for `CN1CCC[C@@H](c2cccc(O)c2)C1`, 290 nM. For `CCc1ccc(N2CCC[C@@H](c3cccc(O)c3)C2)cc1` the value was 43.7 nM; for `CCc1ccc(N2CCC[C@H](c3cccc(O)c3)C2)cc1`, 1230 nM.
